Laboratory results: patent publication US20120115896A1, “ISOGENIC HUMAN CELL LINES COMPRISING MUTATED CANCER ALLELES AND PROCESS USING THE CELL LINES” (priority 2008, published 2012)

Experiments:
[1] = test system: panel of cell lines derived from glioblastoma, breast, ovarian, prostate, endometrial and colorectal carcinomas carrying genetic alterations in PIK3CA or PTEN; experiment: Antiproliferative effects of everolimus on a panel of cancer cell lines; type: cell-based, human; settings: FIG. 7A
Excerpt: The present pharmacogenomic analysis of non-transformed cells carrying cancer alleles point to a relationship between the occurrence of PIK3CA mutations and sensitivity to everolimus. The present inventors next assessed whether and to what extent these findings might be applicable to human cancer cells in which mutations in the PIK3CA pathway naturally occur alongside with additional genetic alterations. To this end a panel of cell lines derived from glioblastoma, breast, ovarian, prostate, endometrial and colorectal carcinomas which are known to carry genetic alterations in PIK3CA or PTEN (FIG. 7) were treated with everolimus. […] Everolimus-resistant cells (such as HT-29, HCT 116 and DLD-1) carried mutations in both PIK3CA and KRAS/BRAF.

[2] = test system: hTERT-HME1 cells of the indicated genotype (WT, PIK3CA KI, KRAS G13D, DKI KRAS G13D + PIK3CA H1047R); experiment: Cell cycle analysis by flow cytometry (propidium iodide) after everolimus 500 nM for 48 h; type: cell-based, human; settings: for cells in G1 phase, Mean / cells in G2/M phase, Mean / cells in S phase, Mean / cells in G2 + S, Mean / cells in Sub-G1, Mean: FACS
Experimental: (A) CFSE-labelled cells were analyzed by flow cytometry at the indicated time-points (top panels). The maximum fluorescence intensity for all samples was recorded at day 0 (depicted in filled black). […] (B) Cells of the indicated genotype were incubated with everolimus 500 nM for 48 h, after which cell cycle was analyzed by flow cytometry. No increase of the subG1 apoptotic fraction of cells was observed upon treatment. Representative data from 3 independent experiments are shown.
For time-course experiments, on the initial day hTERT-HME1 cells were labelled with 3 μM CFSE (5-(and -6)-carboxyfluorescein diacetate, succinimidyl ester, Invitrogen C1157, Milan, Italy) in PBS in the dark for 30 minutes. After washing and recording baseline fluorescence, cells were plated in media containing 1% FBS and 2 ng/mL EGF, and treatment with everolimus was initiated, replenishing the drug on a daily basis. For cell cycle analysis, trypsinized cells were washed with PBS and cell nuclei DNA were stained with propidium iodide (PI) for at least 120 minutes using a commercial kit (DNA con 3, Consul T.S., Orbassano, Italy).
All fluorescence levels were detected by flow cytometry on a FACSCalibur (Becton Dickinson, Milan, Italy) and analyzed using CellQuest software. The number of events collected for each sample varied between 15,000 and 50,000. After doublets exclusion, an extended analysis of the DNA content and calculations of the percentage of cells in each phase of the cell cycle were performed on ModFit Lt software (Verity Software House, Topsham, Me.).
To shed light on the preferential effect induced by everolimus in PIK3CA KI clones, the present inventors also performed FACS analysis. […] The data shown in table 7 are the results of hTERT-HME1 cells of the indicated genotype incubated for 48 h with everolimus (500 nM), wherein the effect on cell cycle was analyzed by FACS. […] Accordingly, the proportions of cells in the S- and G2/M-phases decreased. Means of at least 4 independent experiments are shown. Significance by paired t test was taken at p<0.01.
To further explore the role of mutant KRAS on everolimus' response, the present inventors recapitulated the genetic milieu of the HCT116 colorectal cancer cells in hTERT-HME1 cells, by introducing via homologous recombination both KRAS G13D and PIK3CA H1047R alleles in their genome. This approach generated double-KI (DKI) cells, in which each mutation is expressed under the corresponding gene's own promoter. […] Means of at least 4 independent experiments are shown. Significance by paired t test was taken at p<0.01.

[3] = test system: hTERT-HME1 cells carrying PIK3CA (E545K and H1047R) KI; experiment: Drug assay: cell viability by ATP content (96 h) and Hoechst/propidium iodide staining, KI versus parental cells; ΔKI pharmarray analysis; settings: hTERT-HME1
[4] = hTERT-HME1 DKI KRAS G13D + PIK3CA H1047R, propidium iodide
[5] = hTERT-HME1 KI KRAS G13D, propidium iodide

## CO[C@H]1C[C@@H]2CC[C@@H](C)[C@@](O)(O2)C(=O)C(=O)N2CCCC[C@H]2C(=O)O[C@H]([C@H](C)C[C@@H]2CC[C@@H](OCCO)[C@H](OC)C2)CC(=O)[C@H](C)/C=C(\C)[C@@H](O)[C@@H](OC)C(=O)[C@H](C)C[C@H](C)/C=C/C=C/C=C/1C [everolimus, Everolimus]
[1]
  response of tumor cells with PIK3CA pathway alterations but no mutation in KRAS/BRAF: sensitive
[1]; such as HT-29, HCT 116 and DLD-1
  response of tumor cells carrying mutations in both PIK3CA and KRAS/BRAF: resistant
[2]
  cell cycle response of DKI cells (KRAS G13D and PIK3CA H1047R): cell cycle response comparable to that observed in the parental WT population
[2]; [4]
  cells in G1 phase, Mean: 77.5
  cells in G2/M phase, Mean: 10.5
  cells in S phase, Mean: 12.0
[2]; [5]
  cells in G1 phase, Mean: 75.7
  cells in G2/M phase, Mean: 13.1
  cells in S phase, Mean: 11.2
[2]; hTERT-HME1 KI PIK3CA E545K
  cells in G1 phase, Mean: 78.5
  cells in G2 + S, Mean: 21.5
  cells in G2/M phase, Mean: 12.7
  cells in S phase, Mean: 8.8
  cells in Sub-G1, Mean: 0.9
[2]; hTERT-HME1 KI PIK3CA H1047R
  cells in G1 phase, Mean: 88.7
  cells in G2 + S, Mean: 11.3
  cells in G2/M phase, Mean: 4.9
  cells in S phase, Mean: 6.4
  cells in Sub-G1, Mean: 0.6
[2]; hTERT-HME1 WT
  cells in G1 phase, Mean: 75.7
  cells in G2 + S, Mean: 24.3
  cells in G2/M phase, Mean: 14.2
  cells in S phase, Mean: 10.1
  cells in Sub-G1, Mean: 0.9
[2]; vehicle versus drug-treated, FIG. 18B
  apoptosis: almost undetectable
[3]; FIG. 5G
  pharmarray: differential response of PIK3CA mutated cells versus WT: affecting preferentially
[3]; wide range of concentrations, FIG. 6A
  antiproliferative effect on PIK3CA KI clones versus WT: significant antiproliferative effect only in mutated cells
